Source: the supplement of paper PMC10307832

What was measured:
Experiment in all cases: relative viability (nuclei count vs DMSO), 5 days (fraction); higher = more cells survive
COR-L23 = tested on: COR-L23
Outline: (§1)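 After 5 days of treatment, lung cancer cells in 1536-well plates were fixed and stained in a single step (final 0.05% Triton X-100, 1% formaldehyde, 1 ug/ml Hoechst) and their nuclei counted on 4× images. Treatment had been applied by pin tool the day after seeding as one drug alone or as a fixed anchor-drug dose with five library-drug doses (not always all listed) in √10 steps. Relative viability is the nuclei count of treated wells divided by that of vehicle wells, and values are medians of duplicate plates.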

NCI-H1395 = tested on: NCI-H1395
Outline: as §1

NCI-H1793 = tested on: NCI-H1793
Outline: as §1

NCI-H358 = tested on: NCI-H358
Outline: as §1

NCI-H23 = tested on: NCI-H23
Outline: as §1

HCC-366 = tested on: HCC-366
Outline: as §1

SK-LU-1 = tested on: SK-LU-1
Outline: as §1

HARA = tested on: HARA
Outline: as §1

NCI-H2023 = tested on: NCI-H2023
Outline: as §1

NCI-H1993 = tested on: NCI-H1993
Outline: as §1

EMC-BAC-2 = tested on: EMC-BAC-2
Outline: as §1

HOP-62 = tested on: HOP-62
Outline: as §1

HCC-78 = tested on: HCC-78
Outline: as §1

NCI-H2405 = tested on: NCI-H2405
Outline: as §1

NCI-H1944 = tested on: NCI-H1944
Outline: as §1

HCC-15 = tested on: HCC-15
Outline: as §1

NCI-H838 = tested on: NCI-H838
Outline: as §1

NCI-H2228 = tested on: NCI-H2228
Outline: as §1

NCI-H2126 = tested on: NCI-H2126
Outline: as §1

ABC-1 = tested on: ABC-1
Outline: as §1

LC-2-ad = tested on: LC-2-ad
Outline: as §1

Question: How did the relative viability (COR-L23; first compound 0.0002 µM) turn out when `CC(=O)O[C@@]12CO[C@@H]1C[C@H](O)[C@@]1(C)C(=O)[C@H](O)C3=C(C)[C@@H](OC(=O)[C@H](O)[C@@H](NC(=O)OC(C)(C)C)c4ccccc4)C[C@@](O)([C@@H](OC(=O)c4ccccc4)[C@H]21)C3(C)C` [Docetaxel] + CS(=O)(=O)CCNCc1ccc(-c2ccc3ncnc(Nc4ccc(OCc5cccc(F)c5)c(Cl)c4)c3c2)o1 [Lapatinib] (partner 2 µM) was run?
Answer: 0.993

Question: What about the relative viability (COR-L23; first compound 0.000632 µM) of the same compound?
Answer: 0.843

Question: What about the relative viability (COR-L23; first compound 0.002 µM) of the same compound?
Answer: 0.625

Question: And the relative viability (COR-L23; first compound 0.006325 µM)?
Answer: 0.14

Question: What about the relative viability (COR-L23; first compound 0.02 µM) of the same compound?
Answer: 0.107

Question: And the relative viability (NCI-H1395; first compound 0.0002 µM)?
Answer: 0.992

Question: What about the relative viability (NCI-H1395; first compound 0.000632 µM) of the same compound?
Answer: 0.954

Question: What about the relative viability (NCI-H1395; first compound 0.002 µM) of the same compound?
Answer: 0.775

Question: What about the relative viability (NCI-H1395; first compound 0.006325 µM) of the same compound?
Answer: 0.368

Question: What about the relative viability (NCI-H1395; first compound 0.02 µM) of the same compound?
Answer: 0.268

Question: What about the relative viability (NCI-H1793; first compound 0.0002 µM) of the same compound?
Answer: 0.569

Question: And the relative viability (NCI-H1793; first compound 0.000632 µM)?
Answer: 0.618

Question: What about the relative viability (NCI-H1793; first compound 0.006325 µM) of the same compound?
Answer: 0.315

Question: And the relative viability (NCI-H1793; first compound 0.02 µM)?
Answer: 0.216

Question: What about the relative viability (NCI-H358; first compound 0.0002 µM) of the same compound?
Answer: 0.426

Question: What about the relative viability (NCI-H358; first compound 0.000632 µM) of the same compound?
Answer: 0.357

Question: What about the relative viability (NCI-H358; first compound 0.002 µM) of the same compound?
Answer: 0.332

Question: And the relative viability (NCI-H358; first compound 0.02 µM)?
Answer: 0.149

Question: And the relative viability (NCI-H23; first compound 0.0002 µM)?
Answer: 0.963

Question: What about the relative viability (NCI-H23; first compound 0.000632 µM) of the same compound?
Answer: 0.725

Question: And the relative viability (NCI-H23; first compound 0.002 µM)?
Answer: 0.356

Question: And the relative viability (NCI-H23; first compound 0.006325 µM)?
Answer: 0.157

Question: What about the relative viability (NCI-H23; first compound 0.02 µM) of the same compound?
Answer: 0.123

Question: And the relative viability (HCC-366; first compound 0.0002 µM)?
Answer: 0.938

Question: And the relative viability (HCC-366; first compound 0.000632 µM)?
Answer: 0.054

Question: And the relative viability (HCC-366; first compound 0.002 µM)?
Answer: 0.0282

Question: What about the relative viability (HCC-366; first compound 0.006325 µM) of the same compound?
Answer: 0.0194

Question: And the relative viability (HCC-366; first compound 0.02 µM)?
Answer: 0.011

Question: What about the relative viability (SK-LU-1; first compound 0.0002 µM) of the same compound?
Answer: 0.581

Question: What about the relative viability (SK-LU-1; first compound 0.000632 µM) of the same compound?
Answer: 0.436

Question: And the relative viability (SK-LU-1; first compound 0.002 µM)?
Answer: 0.338

Question: And the relative viability (SK-LU-1; first compound 0.006325 µM)?
Answer: 0.222

Question: And the relative viability (SK-LU-1; first compound 0.02 µM)?
Answer: 0.233

Question: And the relative viability (HARA; first compound 0.0002 µM)?
Answer: 0.517

Question: And the relative viability (HARA; first compound 0.000632 µM)?
Answer: 0.302

Question: And the relative viability (HARA; first compound 0.006325 µM)?
Answer: 0.0686

Question: What about the relative viability (HARA; first compound 0.02 µM) of the same compound?
Answer: 0.0783

Question: What about the relative viability (NCI-H2023; first compound 0.0002 µM) of the same compound?
Answer: 0.722

Question: And the relative viability (NCI-H2023; first compound 0.000632 µM)?
Answer: 0.408

Question: What about the relative viability (NCI-H2023; first compound 0.002 µM) of the same compound?
Answer: 0.135

Question: And the relative viability (NCI-H2023; first compound 0.006325 µM)?
Answer: 0.1

Question: And the relative viability (NCI-H2023; first compound 0.02 µM)?
Answer: 0.0578

Question: What about the relative viability (NCI-H1993; first compound 0.0002 µM) of the same compound?
Answer: 0.796

Question: What about the relative viability (NCI-H1993; first compound 0.000632 µM) of the same compound?
Answer: 0.824

Question: What about the relative viability (NCI-H1993; first compound 0.002 µM) of the same compound?
Answer: 0.627

Question: What about the relative viability (NCI-H1993; first compound 0.006325 µM) of the same compound?
Answer: 0.534

Question: And the relative viability (NCI-H1993; first compound 0.02 µM)?
Answer: 0.451

Question: What about the relative viability (EMC-BAC-2; first compound 0.0002 µM) of the same compound?
Answer: 0.735

Question: And the relative viability (EMC-BAC-2; first compound 0.000632 µM)?
Answer: 0.613

Question: And the relative viability (EMC-BAC-2; first compound 0.002 µM)?
Answer: 0.337

Question: And the relative viability (EMC-BAC-2; first compound 0.006325 µM)?
Answer: 0.278

Question: What about the relative viability (EMC-BAC-2; first compound 0.02 µM) of the same compound?
Answer: 0.209

Question: And the relative viability (HOP-62; first compound 0.0002 µM)?
Answer: 0.828

Question: And the relative viability (HOP-62; first compound 0.000632 µM)?
Answer: 0.448

Question: What about the relative viability (HOP-62; first compound 0.02 µM) of the same compound?
Answer: 0.112

Question: And the relative viability (HCC-78; first compound 0.0002 µM)?
Answer: 0.593

Question: And the relative viability (HCC-78; first compound 0.000632 µM)?
Answer: 0.634

Question: And the relative viability (HCC-78; first compound 0.002 µM)?
Answer: 0.461

Question: What about the relative viability (HCC-78; first compound 0.006325 µM) of the same compound?
Answer: 0.246

Question: And the relative viability (HCC-78; first compound 0.02 µM)?
Answer: 0.204

Question: What about the relative viability (NCI-H2405; first compound 0.0002 µM) of the same compound?
Answer: 1.03

Question: What about the relative viability (NCI-H2405; first compound 0.000632 µM) of the same compound?
Answer: 0.623

Question: What about the relative viability (NCI-H2405; first compound 0.002 µM) of the same compound?
Answer: 0.557

Question: What about the relative viability (NCI-H2405; first compound 0.006325 µM) of the same compound?
Answer: 0.488

Question: What about the relative viability (NCI-H2405; first compound 0.02 µM) of the same compound?
Answer: 0.345

Question: And the relative viability (NCI-H1944; first compound 0.0002 µM)?
Answer: 0.545

Question: And the relative viability (NCI-H1944; first compound 0.000632 µM)?
Answer: 0.667

Question: What about the relative viability (NCI-H1944; first compound 0.002 µM) of the same compound?
Answer: 0.579

Question: And the relative viability (NCI-H1944; first compound 0.006325 µM)?
Answer: 0.242

Question: What about the relative viability (NCI-H1944; first compound 0.02 µM) of the same compound?
Answer: 0.112

Question: What about the relative viability (HCC-15; first compound 0.0002 µM) of the same compound?
Answer: 0.681

Question: And the relative viability (HCC-15; first compound 0.000632 µM)?
Answer: 0.372

Question: What about the relative viability (HCC-15; first compound 0.002 µM) of the same compound?
Answer: 0.208

Question: And the relative viability (HCC-15; first compound 0.006325 µM)?
Answer: 0.195

Question: What about the relative viability (HCC-15; first compound 0.02 µM) of the same compound?
Answer: 0.137

Question: What about the relative viability (NCI-H838; first compound 0.0002 µM) of the same compound?
Answer: 0.963

Question: What about the relative viability (NCI-H838; first compound 0.000632 µM) of the same compound?
Answer: 0.63

Question: And the relative viability (NCI-H838; first compound 0.002 µM)?
Answer: 0.259

Question: What about the relative viability (NCI-H838; first compound 0.006325 µM) of the same compound?
Answer: 0.15

Question: And the relative viability (NCI-H838; first compound 0.02 µM)?
Answer: 0.106

Question: And the relative viability (NCI-H2228; first compound 0.0002 µM)?
Answer: 0.641

Question: And the relative viability (NCI-H2228; first compound 0.000632 µM)?
Answer: 0.184

Question: And the relative viability (NCI-H2228; first compound 0.002 µM)?
Answer: 0.255

Question: What about the relative viability (NCI-H2228; first compound 0.006325 µM) of the same compound?
Answer: 0.267

Question: What about the relative viability (NCI-H2228; first compound 0.02 µM) of the same compound?
Answer: 0.16

Question: And the relative viability (NCI-H2126; first compound 0.0002 µM)?
Answer: 0.738

Question: And the relative viability (NCI-H2126; first compound 0.000632 µM)?
Answer: 0.683

Question: And the relative viability (NCI-H2126; first compound 0.002 µM)?
Answer: 0.562

Question: What about the relative viability (NCI-H2126; first compound 0.006325 µM) of the same compound?
Answer: 0.395

Question: And the relative viability (NCI-H2126; first compound 0.02 µM)?
Answer: 0.253

Question: And the relative viability (ABC-1; first compound 0.0002 µM)?
Answer: 1.21

Question: What about the relative viability (ABC-1; first compound 0.000632 µM) of the same compound?
Answer: 1.12

Question: And the relative viability (ABC-1; first compound 0.002 µM)?
Answer: 1.14

Question: What about the relative viability (ABC-1; first compound 0.006325 µM) of the same compound?
Answer: 0.797

Question: What about the relative viability (ABC-1; first compound 0.02 µM) of the same compound?
Answer: 0.577

Question: And the relative viability (LC-2-ad; first compound 0.0002 µM)?
Answer: 0.538

Question: What about the relative viability (LC-2-ad; first compound 0.000632 µM) of the same compound?
Answer: 0.296

Question: And the relative viability (LC-2-ad; first compound 0.002 µM)?
Answer: 0.14

Question: And the relative viability (LC-2-ad; first compound 0.006325 µM)?
Answer: 0.112

Question: What about the relative viability (LC-2-ad; first compound 0.02 µM) of the same compound?
Answer: 0.0888
